The text below walks through data of ChEMBL document CHEMBL4002639, “DL-3-n-butylphthalide-Edaravone hybrids as novel dual inhibitors of amyloid-β aggregation and monoamine oxidases with high antioxidant potency for Alzheimer's therapy” (Bioorg Med Chem Lett, 2017).

In test [1] the target is Amyloid-beta precursor protein (Homo sapiens) (UniProt P05067). In words: Inhibition of self-induced Amyloid beta (1 to 42) (unknown origin) aggregation at 25 uM after 24 hrs by thioflavin T-based fluorometric assay relative to control.
Test [2] concerns the target T1, Amine oxidase [flavin-containing] B (Homo sapiens, UniProt P27338).
T1 sequence (P27338 whole entry): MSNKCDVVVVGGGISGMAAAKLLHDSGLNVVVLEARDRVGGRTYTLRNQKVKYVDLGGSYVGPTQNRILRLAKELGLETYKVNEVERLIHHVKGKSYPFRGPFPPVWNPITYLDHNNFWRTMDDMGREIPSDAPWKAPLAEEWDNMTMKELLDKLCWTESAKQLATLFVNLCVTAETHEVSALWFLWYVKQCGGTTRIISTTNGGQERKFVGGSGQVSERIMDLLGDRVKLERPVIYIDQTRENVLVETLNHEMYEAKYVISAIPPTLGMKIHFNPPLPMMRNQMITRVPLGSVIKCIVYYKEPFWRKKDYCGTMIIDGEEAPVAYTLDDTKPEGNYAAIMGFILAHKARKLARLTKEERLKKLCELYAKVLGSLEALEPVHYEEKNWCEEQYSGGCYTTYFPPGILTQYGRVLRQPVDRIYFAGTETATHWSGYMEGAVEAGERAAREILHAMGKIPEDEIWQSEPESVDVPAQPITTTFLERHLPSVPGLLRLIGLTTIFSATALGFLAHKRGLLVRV
Description: Inhibition of recombinant human MAO-B at 10 uM using kynuramine as substrate after 30 mins by fluorescence assay. The following applies: 0.5 h.

Test [3] is described as follows: Antioxidant activity assessed as trolox equivalent of AAPH radical scavenging activity at 1 uM preincubated for 15 mins followed by AAPH addition measured every min for 90 mins by ORAC-FL assay. The format is functional.
Test [4] deals with T2, Amine oxidase [flavin-containing] A (Homo sapiens, UniProt P21397).
T2 sequence (P21397 whole entry): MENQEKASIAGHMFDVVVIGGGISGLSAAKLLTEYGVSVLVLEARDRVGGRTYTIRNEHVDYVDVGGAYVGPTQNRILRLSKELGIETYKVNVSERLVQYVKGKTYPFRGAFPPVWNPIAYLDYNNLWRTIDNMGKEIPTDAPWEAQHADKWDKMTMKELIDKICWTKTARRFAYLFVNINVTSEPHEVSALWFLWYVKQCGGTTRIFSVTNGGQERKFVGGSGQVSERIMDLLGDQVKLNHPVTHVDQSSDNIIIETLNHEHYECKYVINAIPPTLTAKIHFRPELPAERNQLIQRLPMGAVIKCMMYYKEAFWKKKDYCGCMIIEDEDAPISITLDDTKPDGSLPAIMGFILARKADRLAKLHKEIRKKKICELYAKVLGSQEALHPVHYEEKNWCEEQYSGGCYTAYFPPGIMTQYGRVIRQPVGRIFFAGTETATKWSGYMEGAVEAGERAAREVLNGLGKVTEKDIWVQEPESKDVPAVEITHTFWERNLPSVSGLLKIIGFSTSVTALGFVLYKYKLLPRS
In words: Inhibition of recombinant human MAO-A at 10 uM using kynuramine as substrate after 30 mins by fluorescence assay. The following applies: 0.5 h.

The species named for the next test is Homo sapiens. Description: Selectivity index, ratio of IC50 for recombinant human MAO-A to IC50 for recombinant human MAO-B.
The target in test [5] is T2, Amine oxidase [flavin-containing] A. In words: Inhibition of recombinant human MAO-A using kynuramine as substrate after 30 mins by fluorescence assay.
For test [6], the target named is T1, Amine oxidase [flavin-containing] B.
Description: Inhibition of recombinant human MAO-B using kynuramine as substrate after 30 mins by fluorescence assay

SMILES strings stand for the structures. pIC50: −log10 of the molar value. Active and inactive are the calls of the source. The rule behind the calls is not given here.

Sequence of Amyloid-beta precursor protein (Homo sapiens) (P05067 whole entry): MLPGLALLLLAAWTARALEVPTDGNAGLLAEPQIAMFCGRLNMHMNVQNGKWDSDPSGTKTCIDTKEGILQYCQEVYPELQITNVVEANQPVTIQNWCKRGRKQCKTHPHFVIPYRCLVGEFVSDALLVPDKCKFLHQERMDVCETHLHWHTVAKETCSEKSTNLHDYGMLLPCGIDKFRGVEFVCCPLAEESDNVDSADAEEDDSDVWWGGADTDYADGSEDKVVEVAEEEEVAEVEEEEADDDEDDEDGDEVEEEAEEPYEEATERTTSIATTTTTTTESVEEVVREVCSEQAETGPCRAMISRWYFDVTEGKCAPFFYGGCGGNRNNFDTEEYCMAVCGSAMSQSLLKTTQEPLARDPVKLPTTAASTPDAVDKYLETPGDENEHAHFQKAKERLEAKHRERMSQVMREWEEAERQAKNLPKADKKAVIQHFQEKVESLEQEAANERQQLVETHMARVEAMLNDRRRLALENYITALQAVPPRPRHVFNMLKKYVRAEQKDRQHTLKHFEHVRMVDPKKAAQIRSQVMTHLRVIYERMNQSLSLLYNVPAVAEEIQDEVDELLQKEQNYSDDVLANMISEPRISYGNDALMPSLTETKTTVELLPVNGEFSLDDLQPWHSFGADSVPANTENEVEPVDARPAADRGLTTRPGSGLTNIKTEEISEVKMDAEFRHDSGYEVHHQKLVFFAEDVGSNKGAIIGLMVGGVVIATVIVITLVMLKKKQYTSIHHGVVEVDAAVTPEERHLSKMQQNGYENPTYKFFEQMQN

Consider `CCCCC1OC(=O)c2ccccc21` (racemic) [RAC-3-N-BUTYLPHTHALIDE], for which the inhibition (commonly the change of the read-out against control, counted positive when it falls) in test [1] is 1.2%. Moreover, the inhibition at 10 µM in test [2] came out at 18.2%; in test [4] it was 11.2%. In addition, the Activity in test [3] worked out at 0.21 µMequiv/µM.
For `CC1=NN(c2ccccc2)C(=O)C1` [EDARAVONE], in that order: 20.1%, 7.29%, < 5% and 0.72 µMequiv/µM.
`CCCCC1OC(=O)c2cc(-n3nc(C(F)(F)F)cc3O)ccc21` (stereo unspecified) gave an inhibition in test [1] of 50.1 to 71.5%. Besides, the Activity in test [3] is 2.22 µMequiv/µM.
For the compound `CCCCCC1OC(=O)c2cc(-n3nc(C(F)(F)F)cc3O)ccc21` (stereo unspecified), in test [1], the inhibition result was “inactive”. Besides, the Activity in test [3] was found to be 2.37 µMequiv/µM.
In test [1], `CCCCCCC1OC(=O)c2cc(N3N=C(C)CC3=O)ccc21` (stereo unspecified) displayed an inhibition of 50.1 to 71.5%. Also, in test [3], the Activity was 0.85 µMequiv/µM. The Ratio IC50 in the test listed under Homo sapiens is 2. The pIC50 (as a rule, the negative decadic logarithm of the IC50, by convention in mol/L) in test [5] was 4.82; in test [6], 5.12.
In test [1], `CCCCCCCC1OC(=O)c2cc(N3N=C(C)CC3=O)ccc21` (stereo unspecified) displayed an inhibition of 71.5%. Moreover, the Activity in test [3] was found to be 1.18 µMequiv/µM.
Consider `COc1cc(/C=C/C(=O)CC(=O)/C=C/c2ccc(O)c(OC)c2)ccc1O`, for which the inhibition in test [1] was 39%.
Take `CCCCC1OC(=O)c2cc(N3N=C(C)CC3=O)ccc21` (stereo unspecified): in test [1], the inhibition fell in the range of 50.1 to 71.5%. The Activity in test [3] amounted to 1.03 µMequiv/µM.
In test [1], `CCCCCC1OC(=O)c2cc(N3N=C(C)CC3=O)ccc21` (stereo unspecified) displayed an inhibition of 50.1 to 71.5%. Further, the Activity in test [3] came out at 0.62 µMequiv/µM. Also, the Ratio IC50 in the test filed under Homo sapiens was determined as 1.5. The pIC50 in test [5] was 4.71; in test [6] it was 4.89.
With `CCCCCCCC1OC(=O)c2cc(-n3nc(C(F)(F)F)cc3O)ccc21` (stereo unspecified), the inhibition result in test [1] is “inactive”. The Activity in test [3] came to 2.21 µMequiv/µM.
With `CCCCCCC1OC(=O)c2cc(-n3nc(C(F)(F)F)cc3O)ccc21` (stereo unspecified), the inhibition result in test [1] is “inactive”. In test [3], the Activity turned out to be 2.28 µMequiv/µM.
